According to US4943587A, “Hydroxamate derivatives of selected nonsteroidal antiinflammatory acyl residues and their use for cyclooxygenase and 5-lipoxygenase inhibition” (Warner-Lambert Company, priority 1988, dated 1990):

Assays:
[1] = system: Mycobacterium-induced rat footpad edema; experiment: Mycobacterium-induced rat footpad edema (MFE) assay; format: in vivo; details: swelling at 72 h; for ED40: Rattus norvegicus, po, probit analysis, read-out: MFE ID40 (dose at which swelling is inhibited by 40%)
Method: Mycobacterium - Induced Rat Footpad Edema Assay (MFE): Protocol
Myobacterium butyricum (5 mg/ml) is suspended in paraffin oil by sonication for ten minutes in an ice bath. Footpad edema is induced on Day 0 by injecting 0.1 ml of the Mycobacterium mixture into the left hindpaw of lightly anesthetized rats. Swelling in the injected hindpaw is determined by mercury plethysmography seventy-two hours after injection. Groups of rats are treated with test compounds (suspended in 0.5% hydroxypropyl methylcellulose with 0.2% Tween-80) or vehicle one hour before Myobacterium injection and on Days 1 and 2. Inhibition of swelling is determined by comparing the change in hindpaw volume in compound- and vehicle-treated rats. An ID40 (the dose at which swelling is inhibited by 40%) was calculated by probit analysis.

[2] = system: Carrageenan-induced rat foot paw edema; experiment: Carrageenan-induced rat foot paw edema (CFE-2) assay; format: in vivo; details: read-out: CFE % Inhibition @ Dose; for inhibition in vivo at 30 mg/kg: 30 mg/kg PO; for inhibition in vivo at 30 mg/kg / inhibition in vivo at 10 mg/kg: 1 h before carrageenan, edema at 5 h; for inhibition in vivo at 10 mg/kg: 10 mg/kg PO
Method: Carrageenan-Induced Rat Foot Paw Edema-2 (CFE-2) Assay: Protocol
Carrageenan solution (1% w/v) is prepared by dissolving 100 mg carrageenan (Marine Colloidal Div., Springfield, N.J.) in 10 ml of sterile saline (0.9%) solution (Travenol). The solution is vortexed for thirty to forty-five minutes. Animals are dosed with compound one hour before carrageenan challenge. Foot paw edema is induced by injecting 0.05 ml of the 1% carrageenan subcutaneously into the plantar portion of the right hind paw of each rat under light anesthesia. Initial foot paw volume is measured immediately following carrageenan challenge using mercury plethysmography (Buxco Electronics). Edema is measured five hours after carrageenan. The difference between the five-hour and the initial paw volume is expressed as delta edema. The delta edema for each test group of animals is used to calculate the percent inhibition of edema achieved by the compound at the test dose compared with the vehicle control group. The ID25 (the dose at which swelling is inhibited by 25%) was calculated by probit analysis for the dose at which a result of 25 percent inhibition occurs.

[3] = biological target: T1, Cyclooxygenase (Rattus norvegicus, UniProt Q63921); experiment: ARBC: RBL-1 whole cell cyclooxygenase assay (inhibition of PGF2α formation); format: cell-based; details: RBL-1 cells, A23187 5 μM; for % inhibition ARBC (RBL whole cell cyclooxygenase, PGF2α inhibition): @ 32 (μM); for IC50: PGF2α formation
T1 construct: host or cells: RBL-1 (rat basophilic leukemia)
T1 sequence (Q63921 27-602): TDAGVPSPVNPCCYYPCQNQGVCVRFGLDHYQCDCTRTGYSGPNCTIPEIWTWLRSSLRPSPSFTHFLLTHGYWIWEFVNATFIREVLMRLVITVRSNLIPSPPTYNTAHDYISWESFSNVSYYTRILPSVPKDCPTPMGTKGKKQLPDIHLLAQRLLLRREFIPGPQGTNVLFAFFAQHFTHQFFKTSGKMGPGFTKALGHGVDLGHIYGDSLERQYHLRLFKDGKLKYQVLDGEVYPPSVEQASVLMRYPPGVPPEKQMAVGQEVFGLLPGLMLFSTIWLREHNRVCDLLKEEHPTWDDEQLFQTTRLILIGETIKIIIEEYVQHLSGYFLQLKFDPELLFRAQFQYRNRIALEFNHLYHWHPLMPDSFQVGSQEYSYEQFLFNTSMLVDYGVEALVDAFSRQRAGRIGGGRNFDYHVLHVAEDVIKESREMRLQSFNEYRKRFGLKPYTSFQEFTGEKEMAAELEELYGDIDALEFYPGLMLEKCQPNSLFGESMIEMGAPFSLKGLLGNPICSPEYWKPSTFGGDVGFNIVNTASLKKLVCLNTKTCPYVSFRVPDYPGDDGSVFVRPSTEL
Text: (§1) ARBL/ARBC Whole Cell 5-Lipoxygenase and Cyclooxygenase Assays
(§2) The rat basophilic leukemia cell line (RBL-1) was obtained from the American Type Culture Collection (Rockville, Md.).
(§3) Radioimmuno assay (RIA) kits of LTB4 and PGF2α were obtained from Amersham (Arlington Heights, Ill.) and Seragen (Boston, Mass.) respectively.
(§4) Cells are harvested by centrifugation. They are washed with cold phosphate buffered saline pH 7.4 (PBS; NaCl, 7.1 g; Na2 PO4, 1.15 g; KH2 PO4, 0.2 g; and KCl, 0.2 g/l). […] Calcium ionophore A23187 (5 μM) is added and cells are incubated for seven minutes at 37° C. The reaction is stopped by chilling the tubes on ice for ten minutes. Cells are separated by centrifugation and the supernatant is stored at -20°. Aliquots (100 μl) are analyzed for LTB4 and PGF2α using radioimmuno assay kits as provided by the supplier.

[4] = biological target: T2, 5-Lipoxygenase (Rattus norvegicus, UniProt P12527); experiment: ARBL: RBL-1 whole cell 5-lipoxygenase assay (inhibition of LTB4 formation); format: cell-based; details: RBL-1 cells, A23187 5 μM
T2 construct: host or cells: RBL-1 (rat basophilic leukemia)
T2 sequence (P12527 1-673): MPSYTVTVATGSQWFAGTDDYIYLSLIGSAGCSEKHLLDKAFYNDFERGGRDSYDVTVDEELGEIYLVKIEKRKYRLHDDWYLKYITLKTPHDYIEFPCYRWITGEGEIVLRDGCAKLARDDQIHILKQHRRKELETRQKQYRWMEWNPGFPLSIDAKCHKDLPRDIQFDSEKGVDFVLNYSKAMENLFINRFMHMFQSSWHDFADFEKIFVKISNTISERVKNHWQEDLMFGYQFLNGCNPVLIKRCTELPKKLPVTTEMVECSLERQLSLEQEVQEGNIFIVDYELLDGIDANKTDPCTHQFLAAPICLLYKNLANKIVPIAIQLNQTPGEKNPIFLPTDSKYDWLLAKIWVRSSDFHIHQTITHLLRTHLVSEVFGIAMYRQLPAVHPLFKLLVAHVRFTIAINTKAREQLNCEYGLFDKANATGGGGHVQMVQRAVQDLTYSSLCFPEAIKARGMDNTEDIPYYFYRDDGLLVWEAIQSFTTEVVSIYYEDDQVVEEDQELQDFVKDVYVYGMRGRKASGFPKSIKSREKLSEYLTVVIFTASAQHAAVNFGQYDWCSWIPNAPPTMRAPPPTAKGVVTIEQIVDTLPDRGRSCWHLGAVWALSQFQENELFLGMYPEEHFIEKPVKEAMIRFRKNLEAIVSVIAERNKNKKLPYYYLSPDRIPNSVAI
Method: as §1, §2, §3
RBL-1 cells are grown in suspension culture in Eagle's minimum essential medium supplemented with 12% fetal bovine serum at 37° C. in an incubator supplied with air-5% carbon dioxide. Cells are harvested by centrifugation. They are washed with cold phosphate buffered saline pH 7.4 (PBS; NaCl, 7.1 g; Na2 PO4, 1.15 g; KH2 PO4, 0.2 g; and KCl, 0.2 g/l). Cells are finally suspended in PBS containing 1.0 mM calcium at a density of 2×10^6 cells/ml. Cells are incubated with and without test agent (in DMSO) (1% DMSO is without effect on arachidonic acid metabolism) for ten minutes at room temperature. Calcium ionophore A23187 (5 μM) is added and cells are incubated for seven minutes at 37° C. The reaction is stopped by chilling the tubes on ice for ten minutes. Cells are separated by centrifugation and the supernatant is stored at -20°. Aliquots (100 μl) are analyzed for LTB4 and PGF2α using radioimmuno assay kits as provided by the supplier.

[5] = system: gastric ulcers in rats; experiment: Gastric ulcerogenicity (UD); format: in vivo, Male outbred Wistar rats; details: 100 mg/kg PO, fasted rats, 6 h
Method: (§5) Gastric Ulcerogenicity (UD) Protocol
(§6) Male outbred Wistar rats (100-250 gms) were fasted for twenty-four hours. After fasting, test compounds were administered orally (in 2 ml/Kg of 0.5% hydroxypropyl methylcellulose) and the rats were denied access to food and water for six more hours. The rats were then sacrificed with CO2 so that the stomachs could be removed, opened along the greater curvature, and evaluated for the presence of gastric ulcers. Results are expressed as the percent of rats with gastric ulcers at a given dose.

[6] = Gastric ulcerogenicity (UD); format: in vivo, Male outbred Wistar rats; details: rat, in vivo, po
Method: as §5, §6

[7] = system: Cyclooxygenase; experiment: ARBC: RBL-1 whole cell cyclooxygenase assay (inhibition of PGF2α formation); format: cell-based, rat; details: ARBL/ARBC IC50; >1.0 cyclooxygenase selective, <1.0 5-lipoxygenase selective
Text: as §1, §2, §3, §4

Row | % inhibition ARBC (RBL whole cell cyclooxygenase, PGF2α inhibition) [3] | IC50 [4] | SMILES | inhibition in vivo at 30 mg/kg [2] | ED40 [1] | inhibition in vivo at 10 mg/kg [2] | also measured
1 | 0% | 1 µM | CC1=C(CC(=O)N(C)O)c2cc(F)ccc2/C1=C\c1ccc([S+](C)[O-])cc1 (stereo not drawn) [Example 1, (Z)-6-fluoro-N-hydroxy-N,2-dimethyl-3-[[4-(methylsulfinyl)phenyl]methylene]-3H-indene-1-acetamide] | 15% | – | – | MFE % Inhibition @ Dose ([1]; 10 mg/kg PO): 30%
2 | – | 1.4 µM | COc1ccc2c(c1)c(CC(=O)N(C)O)c(C)n2C(=O)c1ccc(Cl)cc1 [Example 3, 1-(4-Chlorobenzoyl)-N-hydroxy-5-methoxy-N,2-dimethyl-1H-indole-3-acetamide] | – | < 2 mg/kg | 29% | percent of rats with gastric ulcers at a given dose (UD50 column) [5]: 10%
3 | 0% | 26.4 µM | CONC(=O)CC1=C(C)/C(=C/c2ccc([S+](C)[O-])cc2)c2ccc(F)cc21 (stereo not drawn) [Example 2, (Z)-6-fluoro-N-methoxy-2-methyl-3-[[4-(methylsulfinyl)phenyl]methylene]-3H-indene-1-acetamide] | – | – | – | –
4 | 0% | 12.9 µM | CC1=C(CC(=O)NO)c2cc(F)ccc2/C1=C\c1ccc([S+](C)[O-])cc1 (stereo not drawn) [Example 2A, (Z)-6-fluoro-N-hydroxy-2-methyl-3-[[4-(methylsulfinyl)phenYl]methylene]-3H-indene-1-acetamide] | 31% | – | – | MFE % Inhibition @ Dose ([1]; 50 mg/kg PO): 53%
5 | – | 0.9 µM | COc1ccc2c(c1)c(CC(=O)N(O)C(C)C)c(C)n2C(=O)c1ccc(Cl)cc1 [Example 5, 1-(4-Chlorobenzoyl)-N-hydroxy-5-methoxy-2-methyl-N-(1-methylethyl)-1H-indole-3-acetamide] | – | 0.82 mg/kg | 27% | –

Row | SMILES | % inhibition ARBC (RBL whole cell cyclooxygenase, PGF2α inhibition) [3] | IC50 [4] | inhibition in vivo at 30 mg/kg [2] | ED40 [1] | inhibition in vivo at 10 mg/kg [2] | also measured
6 | CONC(=O)Cc1c(C)n(C(=O)c2ccc(Cl)cc2)c2ccc(OC)cc12 [Example 4, 1-(4-Chlorobenzoyl)-N,5-dimethoxy-2-methyl-1H-indole-3-acetamide] | – | 24 µM | – | – | 40% | TD50 at 6 h [6]: 42 mg/kg; RATIO, selectivity of inhibition [7]: 120; IC50 [3]: 200 nM
7 | COc1ccc2c(c1)c(CC(=O)NO)c(C)n2C(=O)c1ccc(Cl)cc1 [Oxametacin, reference compound] | – | 7.5 µM | 46% | – | – | TD50 at 6 h [6]: 103 mg/kg
8 | COc1ccc2c(c1)c(CC(=O)O)c(C)n2C(=O)c1ccc(Cl)cc1 [Indomethacin, 1(p-chlorobenzoyl)-5-methoxy-2-methylindole-3-acetic acid, reference compound] | – | > 100 µM | – | 0.21 mg/kg | – | inhibition in vivo at 5 mg/kg ([2]; po, 5 h): 36%
9 | COc1ccc2c(c1)c(CC(=O)N(O)C1CCCCC1)c(C)n2C(=O)c1ccc(Cl)cc1 [Example 6, 1-(4-Chlorobenzoyl)-N-cyclohexyl-N-hydroxy-5-methoxy-2-methyl-1H-indole-3-acetamide] | – | 1.6 µM | – | 4.7 mg/kg | 22% | RATIO, selectivity of inhibition [7]: 16.0; IC50 [3]: 100 nM
